Measured values: US20250289878A1, “SURFACE-MODIFIED EXOSOMES AND METHODS OF USE” (The Board of Regents of the University of Oklahoma, priority 2021, published 2025)

Tests used:
[1] = test system: cleaved caspase-3 and cleaved PARP of B16F10 cells; experiment: Apoptotic activity: cleaved caspase-3 and cleaved PARP by ELISA and western blot; format: cell-based, murine; settings: DOX 5 μM, 24 hours
Description: B16F10 cells were seeded in a 100 mm cell culture dish with cell density at 4.4×10^6 and incubated for 24 hours. After the treatment of various agents with a fixed concentration of DOX (5 μM) for 24 hours, proteins were collected using a cell lysis buffer on ice. Proteins were separated by electrophoresis and transferred to PVDF membranes. Cleaved caspase-3, cleaved PARP, and β-actin (Cell Signaling Technology, Danvers, MA, USA) were used as primary antibodies, and IRDye secondary antibodies (LI-COR Biosciences, Lincoln, NE, USA) were used as secondary antibodies. The protein bands were imaged using the Odyssey CLx (LI-COR Biosciences, Lincoln, NE, USA). The apoptotic activities of dAEx were evaluated by measuring the level of cleaved caspase-3, and cleaved PARP in the protein samples with a cleaved PARP (Cell Signaling Technology, Danvers, MA, USA) and a cleaved caspase-3 (R&D systems, Minneapolis, MN, USA) ELISA kit according to manufacturer's protocol.

B16F10 cells = experiment: CCK-8 cell viability / cytotoxicity test; format: cell-based, murine; settings: Mus musculus, B16-F10, DOX concentration, 24 hours, read-out: half-maximal inhibitory concentration (IC50)
Description: Cells (B16F10 and RAW 264.7 cell line) were grown in DMEM containing 10% FBS at 37° C. with 5% CO2. B16F10 and RAW 264.7 cells were seeded on the 96 well tissue culture plates (1×10^4 per well) and cultured for 24 hours. To confirm the biosafety of ASL and AEx, the cells were treated with various concentrations of ASL and AEx and incubated for 24 hours. For the cytotoxicity test, B16F10 cells were given the various concentrations of dAEx, dEx, DOX. In addition to the further competition test, B16F10 cells were incubated with the cyclic RGD (2 μM) for 2 hours and treated with the various concentrations of dAEx. After 24 hours of the treatment, to investigate the cell survival, cells were washed using the fresh PBS twice, and 10% CCK-8 containing DMEM was added to each well and incubated for 1 hour. The absorbance was measured using a microplate reader at 450 nm.

B16F10 tumor = experiment: B16F10 murine tumor model, therapeutic efficacy; format: in vivo, mice; settings: IV every three days, DOX 5 mg/kg (ASL 2.5 mg/kg), vs untreated control
Description: B16F10 cells (1×10^6) were directly injected into the flank of 6 weeks old mice. The mice were randomly grouped by six in each and observed until the cancer volume reached ˜50 mm^3. […] The tumor volume was calculated based on the formula: (width^2×length)/2. On day 18, the mice were sacrificed, and organs were harvested for histological analysis. H&E and TUNEL staining were performed using the paraffin-embedded tissues.

COc1cccc2c1C(=O)c1c(O)c3c(c(O)c1C2=O)C[C@@](O)(C(=O)CO)C[C@@H]3O[C@H]1C[C@H](N)[C@H](O)[C@H](C)O1 [DOX, Doxorubicin]
expression of cleaved caspase-3 and cleaved PARP [1]: slight activation
IC50 (B16F10 cells): 9.85 ± 1.06 µM
tumor growth (tumor volume) (B16F10 tumor): did not significantly inhibit tumor growth
